{
  "source": "paper PMC9935382",
  "about": "“Sorting nexin-dependent therapeutic targeting of oncogenic epidermal growth factor receptor” (Cancer Gene Therapy, 2022)",
  "key": {"BT20 cells": {"system": "BT20 cells", "experiment": "BT20 mammosphere formation", "assay_type": "cell-based", "procedure": "20,000 BT20 cells were suspended in mammosphere media (15 mL Mammocult media supplemented with 1.7 mL Proliferation supplement, 1.5 μL hydrocortisone, 30 μL heparin, and 150μL penicillin/streptomycin) and plated onto a low adhesion 6-well plate. After one week the number of spheres per well were counted. Cells from selected wells were then dissociated in trypsin EDTA and plated with fresh mammosphere media to develop secondary mammospheres.\nCells were then fractionated and verified by HSP90 cytosolic protein, Bap31 membrane protein, or HDAC nuclear protein. […] After the second week, the number of secondary mammospheres were counted.\nThese spheres were then disassociated and re-plated to form secondary mammospheres."}, "[1]": {"system": "mammary tumors of WAP-TGFα transgenic mice", "experiment": "Tumor growth in WAP-TGFα transgenic mice", "assay_type": "in vivo, mouse", "procedure": "Statistics for the animal model was performed by the University of Arizona Cancer Center Biostatistics and Bioinformatics Shared Resources (BBSR). The cube root of the observed tumor burden was applied to normalize the raw values. […] For all cell culture experiments error bars represent the standard error of the mean across 3 experimental replicates.\n(§1) The transgenic mouse line WAP-TGFα (The Jackson Laboratory; Tg(WapTgfa)215Bri) were back crossed to C57BL/6 J background (N8). WAP-TGFα heterozygous males were bred with C57BL/6 J females to generate study animals and offspring were genotyped using primers against the WAP-TGFα transgene. WAP-TGFα heterozygous females were housed continuously with C57Bl/6 J males to induce pregnancy, resulting in transgene expression. […] To ensure randomized treatment arms we added mice to alternating treatment arms as they developed tumors, starting with the control cPTD4 arm. When a second mouse from the same litter developed a tumor, that animal was added to the opposite arm from its litter mate. The researchers were not blinded to the treatment arms. […] Once entered, mice were weighed, tumors measured, and injections given intravenously at 10 μg/g body weight 3x/week for 4 weeks. […] Upon sacrifice, all tumors were collected and fixed in 10% formalin; a portion of each tumor was homogenized in tissue lysis buffer to form tissue protein lysates. Tissues were paraffin-embedded and sectioned by the Tissue Acquisition and Cell Molecular Analysis Shared Resource at the University of Arizona Cancer Center. The University of Arizona IACUC committee performs oversite of animal experimental protocols with coordination from a veterinarian in compliance with AAALAC.\nWhen tumors reached >100 mm^3, IV injections began at 3X/week, 10 μg/g body weight and tumors were measured 3X/week with calipers. Animals were injected for 4 weeks or until they reached maximal tumor burden, defined as a total tumor volume >2000 mm^3 or an individual tumor measuring >2 cm in diameter. […] The WAP-TGFα is a spontaneous model in which each tumor arises and progresses in a heterogeneous fashion. […] In this study, mice were sacrificed after 4 weeks of injections or once they reached tumor burden, represented by the Kaplin-Meyer graph (Fig. 2B).\n(§2) Mice were bred continuously to induce transgene expression and palpated weekly for tumor formation. […] A Changes in tumor size from entry into study until end of study are shown for each individual tumor, (*) indicate tumors that entered the study at size greater than 500 mm^3, all other tumors entered the study at ~100 mm^3. B a Kaplan-Meier survival curve was generated showing when mice were sacrificed by either reaching tumor burden (2000 mm^3) or the end of the study (p = 0.0002). C Upon sacrifice tumors were harvested and fixed in 10% formalin and embedded in paraffin. FFPE blocks were sectioned at […] and stained with hematoxylin and eosin and imaged at 20x. D Protein lysates were generated from tumors upon the sacrifice and probed for the indicated proteins."}, "[2]": {"system": "mammary fat pad and tumors of WAP-TGFα mice", "experiment": "Histopathology (H+E) of WAP-TGFα mouse tissues", "assay_type": "in vivo", "conditions": "for Tumor pathology: tumor site in value", "source_text": "as §1, §2\nSupplementary Figure 3. Upon sacrifice, tissues were harvested and fixed in 10% formalin. Tissues were embedded, sectioned, and stained with H+E by the Tissue Acquisition and Cell Molecular Analysis Shared Resource (TACMASR) at the University of Arizona Cancer Center. H+E slides were then sent to the UC Davis pathology lab for pathological analysis."}, "MDA-MB-468 cells": {"system": "MDA-MB-468 cells", "assay_type": "cell-based", "conditions": "3 days, MTT", "procedure": "(§3) 2 × 10^3 cells were plated per well in a 96 well plate and left to adhere overnight. The following day, drug treatments were started and continued for 3 days. To measure the viability of the remaining cell population, 10% 3-(4,5-dimethylthiazol-2-yl)-2,5-diphenyltetrazolium (MTT) in media was added and incubated for 2 hours and conversion of MTT to formazan at 540 nm using a biotech Synergy LX plate reader.\nA Peptide sequence alignment of modified and stabilized peptides (−) indicates conserved residues, (/) indicates a deleted residue. Modified residues used for staples are (S)-2-(((9H-flouren-9-yl) methoxy) caronylamino)-2-methyl-hept-6-enoic acid and (R)-2-(((9H-flouren-9-yl) methoxy) caronylamino)-2-methyl-dec-9-enoic acid. PTD4 = Protein Transduction Domain. Ac = acetylation of […] and NH2 = amidation of […]. B MDA-MB-468 cells were treated with 10 μM of the indicated peptide for 3 days. Cell viability was measured using an MTT assay. Vehicle control represents 100%. C. A predicted peptide structure of SNX1.3 was generated using SWISSMODEL with negative (blue) and positive (red) residues highlighted.\nA–G Cells were plated in a 96-well plate at 2000 cells per well. […] Cell viability was then measured with an MTT assay, viability of treated cells were compared with the vehicle control. […]"}, "CHO cells": {"system": "CHO cells", "experiment": "MTT cell viability, CHO", "assay_type": "cell-based, Chinese hamster", "conditions": "CHO cells lack EGFR expression, 3 days", "procedure": "as §3\n(§4) A–G Cells were plated in a 96-well plate at 2000 cells per well. […] Cell viability was then measured with an MTT assay, viability of treated cells were compared with the vehicle control. H MDA-MB-468 cells were plated and incubated+/− IPTG for 2 days prior to drug treatment to induce expression of an EGFR-targeted shRNA.\nSupplementary Figure 1. A. BT20 triple negative breast cancer cells were treated with SNX1.1, 1.2, or 1.3 for 3 days and their viability was measured via MTT analysis. B. CHO cells were treated with PTD4 or SNX1.3 for 3 days and their viability was measured via MTT analysis."}, "H1975 cells": {"system": "H1975 cells", "experiment": "MTT cell viability, H1975", "assay_type": "cell-based", "conditions": "EGFR driver mutation T790M, 3 days", "procedure": "as §3, §4"}, "[3]": {"target": "T1, EGFR kinase domain (residues 672–998) (Homo sapiens, UniProt P00533)", "T1 construct": "baculovirus insect cell expression system (residues 672–998 with N-terminal His-tag followed by TEV cleavage site); made in house; host or cells: Sf9 insect cells (Bac-to-Bac baculovirus, pFastBacHT)", "T1 sequence (P00533 696-1022)": "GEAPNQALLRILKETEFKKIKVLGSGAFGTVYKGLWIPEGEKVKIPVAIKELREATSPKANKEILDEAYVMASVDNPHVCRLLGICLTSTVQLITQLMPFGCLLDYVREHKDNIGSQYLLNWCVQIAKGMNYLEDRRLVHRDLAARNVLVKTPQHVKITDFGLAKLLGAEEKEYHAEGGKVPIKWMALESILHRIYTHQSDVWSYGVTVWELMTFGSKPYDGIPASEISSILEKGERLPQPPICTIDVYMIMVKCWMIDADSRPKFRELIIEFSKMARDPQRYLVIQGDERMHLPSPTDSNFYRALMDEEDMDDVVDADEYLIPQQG", "experiment": "Microscale thermophoresis (MST) binding to EGFRkin", "conditions": "direct binding, MST / BLI", "quoted_text": "Briefly pFastBacHT plasmid containing the cDNA of EGFR kinase domain with N-terminal His-tag was transformed into DH10Bac E. coli to generate bacmid DNA. P1 virus was generated by transfecting 2.0 mL of sf9 cells at 1.0 million cells/ml density with the purified bacmid DNA (200–3000 ng/μL). The P1 virus was harvested after 5–7 days following transfection. The P1 virus was diluted 100-fold into an sf9 cell culture at a density of 2.0 million cells/ml and cultured for 3 days. Supernatant containing the P2 virus was collected by centrifugation and diluted 40-fold into 1.0 L of sf9 cells at a density of 2.0 million cells/ml. After 2.5–3 days, cell pellets were harvested by centrifugation at 3500 x g at 4 °C for 20 min, and flash frozen in liquid nitrogen prior to storage at −80 °C.\nTo purify the EGFR kinase domain, Sf9 cell pellets (~10 g) was thawed on ice and homogenized with 2 passages on an EmulsiFlex-C5 (Avestin) in 50 mL of lysis buffer (50 mM Tris pH 7.5, 600 mM NaCl, 1 mM EDTA, 1 mM TCEP, protease inhibitors, DNAase, and 10% Glycerol). The lysate was centrifugated and supernatant was collected and loaded onto a 1.0 mL HisTrap FF column (GE) at a flow rate of 1.0 ml/min. Following loading, the column was washed with 20 column volumes of wash buffer (50 mM Tris pH 7.5, 600 mM NaCl, 20 mM Imidazole, 1 mM TCEP, and 10% Glycerol) and eluted with a linear gradient of elution buffers containing 20 and 300 mM imidazole. Fractions containing the EGFR kinase domain proteins were combined and concentrated to less than 1.0 mL. The concentrated proteins were loaded onto a Superdex 200 10/300 GL column (GE) equilibrated in buffer (20 mM Tris pH 7.5, 100 mM NaCl) for further purification. The purified proteins were concentrated, flash frozen in liquid nitrogen, and stored at −80 °C.\nMST experiments were carried out using a Monolith NT.115 pico instrument (NanoTemper Technologies, Munich Germany). […] Kd values were derived from the concentration-dependent changes in normalized fluorescence (Fnorm). Data were analyzed using NanoTemper MO. […]"}},
  "note": "“Also recorded” adds a separate entry of the source.",
  "data": [
    {"smiles": "CC[C@H](C)[C@H](NC(=O)[C@@H](NC(=O)[C@H](Cc1c[nH]cn1)NC(=O)[C@H](CC(N)=O)NC(=O)[C@H](CCCCN)NC(=O)[C@H](C)NC(=O)[C@H](CCCNC(=N)N)NC(=O)[C@H](C)NC(=O)[C@H](CCC(N)=O)NC(=O)[C@H](CCCNC(=N)N)NC(=O)[C@H](C)NC(=O)[C@H](C)NC(=O)[C@H](C)NC(=O)[C@H](CCCNC(=N)N)NC(=O)[C@H](C)NC(=O)[C@H](Cc1ccc(O)cc1)NC(C)=O)C(C)C)C(=O)N[C@@H](CCCCN)C(=O)N[C@@H](Cc1ccc(O)cc1)C(=O)N[C@@H](CC(C)C)C(=O)N[C@@H](CCC(=O)O)C(=O)N[C@H](C(=O)N[C@@H](CC(C)C)C(=O)N[C@@H](CC(C)C)C(=O)N[C@@H](Cc1ccc(O)cc1)C(=O)N[C@@H](CO)C(=O)N[C@@H](CCC(N)=O)C(=O)N[C@@H](CCC(N)=O)C(=O)N[C@@H](CCC(N)=O)C(=O)N[C@@H](CC(C)C)C(=O)N[C@@H](C)C(=O)N[C@@H](CCCCN)C(=O)N[C@@H](Cc1ccc(O)cc1)C(=O)N[C@@H](Cc1c[nH]c2ccccc12)C(=O)N[C@@H](CCC(=O)O)C(=O)N[C@@H](C)C(=O)N[C@@H](Cc1ccccc1)C(=O)N[C@@H](CC(C)C)C(N)=O)[C@@H](C)O", "note": "[cSNX1.3]", "values": [
      {"measurement": "primary mammosphere formation", "setting": "BT20 cells; 1 week treatment, low adhesion plate", "value": "no mammospheres were formed"},
      {"measurement": "secondary mammosphere formation, treated in the first week", "setting": "BT20 cells; cSNX1.3 in first week, then cPTD4 or vehicle in second week", "value": "reduction in sphere formation"},
      {"measurement": "secondary mammosphere formation, treated in the second week", "setting": "BT20 cells; treated during second week", "value": "no mammosphere formation"},
      {"measurement": "tumor response", "setting": "[1]; 10 μg/g IV 3X/week, up to 4 weeks", "value": "significant tumor regression; also recorded: significant reduction in tumor growth; also recorded: several tumors completely regress"},
      {"measurement": "average tumor regression rate", "setting": "[1]; 10 μg/g IV 3X/week, up to 4 weeks, n = 11 tumors", "value": 4, "unit": "mm^3/day"},
      {"measurement": "average tumor growth rate", "setting": "[1]; 10 μg/g body weight IV 3X/week, up to 4 weeks, cPTD4 n = 14 tumors, cSNX1.3 n = 11 tumors", "value": -4, "unit": "mm^3/day"},
      {"measurement": "mice that reached tumor burden", "setting": "[1]; mice of total before end of the study, total tumor volume >2000 mm^3 or individual tumor >2 cm", "value": "1/6"},
      {"measurement": "tumors fully regressed", "setting": "[1]; number of tumors, calipers and confirmed during necropsy, 10 μg/g IV 3X/week", "value": 3},
      {"measurement": "tumors that demonstrated growth", "setting": "[1]; number or proportion of tumors at end of study, the 2 growing cSNX1.3 tumors entered at greater than 500 mm^3", "value": 2},
      {"measurement": "tumors with no change in tumor volume", "setting": "[1]; tumors of total, first to last measurement, 10 μg/g IV 3X/week", "value": "2/11"},
      {"measurement": "tumors regressed", "setting": "[1]; tumors of total, 10 μg/g IV 3X/week, up to 4 weeks", "value": "7/11"},
      {"measurement": "Fat Pad pathology", "setting": "[2]; mouse 6.13.7 (cSNX1.3)", "value": "Mammary adenomatous to lobular (atypical) hyperplasia; In situ mammary adenocarcinoma"},
      {"measurement": "Tumor pathology", "setting": "[2]; mouse 6.13.7 (cSNX1.3)", "value": "(R2) Mammary adenocarcinoma (cystic)"},
      {"measurement": "Fat Pad pathology", "setting": "[2]; mouse 6.4.L (cSNX1.3)", "value": "Mammary adenomatous to lobular (atypical) hyperplasia; In situ mammary adenocarcinoma; Focal granulomatous mastitis"},
      {"measurement": "Tumor pathology", "setting": "[2]; mouse 6.4.L (cSNX1.3)", "value": "(L4) Mammary adenomatous to lobular (atypical) hyperplasia; Adenoma; In situ mammary adenocarcinoma; also recorded: (R4) Mammary adenomatous to lobular (atypical) hyperplasia; Cystic ectasia"},
      {"measurement": "Fat Pad pathology", "setting": "[2]; mouse 6.9.LR (cSNX1.3)", "value": "Mammary adenomatous to lobular (atypical) hyperplasia; In situ mammary adenocarcinoma"},
      {"measurement": "Tumor pathology", "setting": "[2]; mouse 6.9.LR (cSNX1.3)", "value": "(L4) Mixed malignant tumor (fibrous component)"},
      {"measurement": "Fat Pad pathology", "setting": "[2]; mouse 7.1.9 (cSNX1.3)", "value": "Mammary adenomatous to lobular (atypical) hyperplasia; In situ cystic (small) mammary adenocarcinoma"},
      {"measurement": "Tumor pathology", "setting": "[2]; mouse 7.1.9 (cSNX1.3)", "value": "(L4) Mammary adenomatous to lobular (atypical) hyperplasia; also recorded: (R4) Mammary adenocarcinoma"},
      {"measurement": "inhibition of cell survival compared with Sapitinib", "setting": "MDA-MB-468 cells", "value": "more effective than Sapitinib"},
      {"measurement": "impact on cell viability / growth", "setting": "CHO cells", "value": "almost no impact"},
      {"measurement": "effect on cell viability", "setting": "H1975 cells", "value": "minimal effect"},
      {"measurement": "binding to the EGFR kinase domain", "setting": "[3]", "value": "directly bind the EGFR kinase domain"}
    ]}
  ]
}
